Laboratory results reported in patent US11459332B2, “Substituted 2-azabicyclo[3.1.0]hexanes as TRK kinases inhibitors” (FOCHON BIOSCIENCES, LTD., priority 2018, dated 2022).

What was measured:
Format in all cases: cell-based
[1] = tested on: KM12 cells; assay: KM12 cells proliferation inhibition (MTS), mechanism-based TRK assay; settings: Homo sapiens, 72 h
Text: (§1) MTS testing kit was purchased from Promega (Madison, Wis., USA). The RPMI-1640, Fetal bovine serum and Penicillin-Streptomycin were purchased from Gibco (San Francisco, Calif., USA). Dimethyl sulfoxide (DMSO) and Puromycin were purchased from Sigma (St. Louis, Mo., USA). Mouse interleukin-3 (IL-3) was purchased from Cell signaling Technology (Boston, Mass., USA).
To investigate whether a compound is able to inhibit the activity of TRK in cells, a mechanism-based assay using KM12 cells was developed. In this assay, inhibition of TRK was detected by the inhibition of KM12 cells proliferation. KM12 cells were cultured in culture flasks to 40-80% confluence in RPMI-1640 plus 10% fetal bovine serum. Cells were collected and plated onto 96-well plates at 1000 cells/well. Plates were incubated at 37° C., with 5% CO2 for 4 h. Compounds were added to the plates, the final compound concentrations were […], 123.5, 41.2, 13.7, 4.6 and 1.5 nM. Place plates at 37° C., with 5% CO2 for KM12 cells 72 h. 20 μl MTS/100 μl medium mixture solution were added to each well and incubate the plates for exactly 2 h. Stop the reaction by adding 25 μl 10% SDS per well. Measure absorbance at 490 nm and 650 nm (reference wavelength). IC50 was calculated using GraphPad Prism 5.0.

[2] = biological target: T1, ETV6-TRKC (Homo sapiens, UniProt Q16288); assay: Engineered Ba/F3 cell proliferation inhibition (MTS), ETV6-TRKC; settings: Ba/F3-ETV6-TRKC cells, 72 h
T1 construct: ETV6 (fusion partner, N-terminal part); expressed in transfected cells; the other entry of the earlier key: ETV6 (P41212, Transcription factor ETV6)
T1 sequence (Q16288 530-825 isoform Q16288-3 limits assumed): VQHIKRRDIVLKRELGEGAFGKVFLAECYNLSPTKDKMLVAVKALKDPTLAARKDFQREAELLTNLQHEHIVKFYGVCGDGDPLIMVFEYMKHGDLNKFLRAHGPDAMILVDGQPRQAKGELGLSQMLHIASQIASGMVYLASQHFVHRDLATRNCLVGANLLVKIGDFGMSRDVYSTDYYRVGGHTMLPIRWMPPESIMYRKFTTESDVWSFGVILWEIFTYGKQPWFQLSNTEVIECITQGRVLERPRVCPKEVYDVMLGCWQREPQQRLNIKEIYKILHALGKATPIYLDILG
Text: as §1
(§2) To investigate whether a compound is able to inhibit the activity of TRK fusion mutation in cells, a mechanism-based assay using engineered Ba/F3 cell lines stably overexpressing oncogenic rearrangement or gene mutation of TRK (TPM3-TRKA, TPM3-TRKA-G595R, AFAP1-TRKB, ETV6-TRKC and ETV6-TRKC-G623R) were developed. In this assay, inhibition of TRK fusion mutation was detected by the cell proliferation inhibition of engineered Ba/F3 cells. Engineered Ba/F3 cells were cultured in culture flasks to 40-80% confluence in RPMI-1640 supplemented with 10% fetal bovine serum, 2 ug/mL puromycin. Cells were collected and plated onto 96-well plates at desired cell density (Ba/F3-TPM3-TRKA: 3×10^4/mL, Ba/F3-TPM3-TRKA-G595R: 1×10^5/mL, Ba/F3-AFAP1-TRKB: 1×10^5/mL, Ba/F3-ETV6-TRKC: 3×10^4/mL, Ba/F3-ETV6-TRKC-G623R: 3×10^4/mL). Plates were incubated at 37° C., with 5% CO2 for 4 h. Compounds were then added to the plates with the final compound concentrations of 10000, 3333, 1111, 270, 123, 41.2, 13.7, 4.6 and 1.5 nM. Plates were incubated at 37° C., with 5% CO2 for 72 h. A mixture of 20 μl MTS/100 μl medium were added to each well and the plates were incubated at 37° C., with 5% CO2 for exactly 2 h. The reaction was stopped by adding 25 μl of 10% SDS per well. The absorbance was measured at 490 nm and 650 nm (reference wavelength). IC50 was calculated using GraphPad Prism 5.0 software.

[3] = biological target: T2, TPM3-TRKA (Homo sapiens, UniProt P04629); assay: Engineered Ba/F3 cell proliferation inhibition (MTS), TPM3-TRKA; settings: Ba/F3-TPM3-TRKA cells, 72 h
T2 construct: TPM3 (fusion partner, N-terminal part); expressed in transfected cells; the other entry of the earlier key: TPM3 (P06753, Tropomyosin alpha-3 chain)
T2 sequence (P04629 510-796 limits assumed): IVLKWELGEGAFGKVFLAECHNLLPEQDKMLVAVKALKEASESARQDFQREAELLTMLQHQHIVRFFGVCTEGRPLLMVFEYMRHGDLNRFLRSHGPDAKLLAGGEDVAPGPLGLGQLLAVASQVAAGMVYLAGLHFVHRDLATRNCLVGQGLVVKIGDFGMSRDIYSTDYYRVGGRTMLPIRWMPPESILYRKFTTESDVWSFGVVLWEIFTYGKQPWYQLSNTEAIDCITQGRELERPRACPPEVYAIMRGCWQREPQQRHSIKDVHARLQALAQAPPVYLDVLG
Text: as §1, §2

[4] = biological target: T3, AFAP1-TRKB (Homo sapiens, UniProt Q16620); assay: Engineered Ba/F3 cell proliferation inhibition (MTS), AFAP1-TRKB; settings: Ba/F3-AFAP1-TRKB cells, 72 h
T3 construct: AFAP1 (fusion partner, N-terminal part); expressed in transfected cells; the other entry of the earlier key: AFAP1 (Q8N556, Actin filament-associated protein 1)
T3 sequence (Q16620 538-822 limits assumed): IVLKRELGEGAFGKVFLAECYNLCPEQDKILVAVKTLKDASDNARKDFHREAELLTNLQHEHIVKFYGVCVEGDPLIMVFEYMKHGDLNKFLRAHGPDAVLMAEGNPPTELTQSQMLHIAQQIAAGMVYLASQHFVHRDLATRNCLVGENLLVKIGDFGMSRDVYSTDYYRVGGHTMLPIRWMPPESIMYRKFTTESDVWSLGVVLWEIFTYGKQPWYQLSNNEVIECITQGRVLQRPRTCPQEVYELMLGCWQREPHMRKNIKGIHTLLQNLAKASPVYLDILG
Text: as §1
as §2, with “Compounds were then added to the plates with the final compound concentrations of 10000, 3333, 1111, 270, 123, 41.2, 13.7, 4.6 and 1.5 nM. Plates were incubated at 37° C., with 5% CO2 for 72 h. A mixture of 20 μl MTS/100 μl medium were added to each well and the plates were incubated at 37° C., with 5% CO2 for exactly 2 h. The reaction was stopped by adding 25 μl of 10% SDS per well.” left out

[5] = biological target: T4, TPM3-TRKA-G595R (Homo sapiens, UniProt P04629, G595R); assay: Engineered Ba/F3 cell proliferation inhibition (MTS), TPM3-TRKA-G595R; settings: Ba/F3-TPM3-TRKA-G595R cells, 72 h
T4 construct: TPM3 (fusion partner, N-terminal part); expressed in transfected cells; the other entry of the earlier key: TPM3 (P06753, Tropomyosin alpha-3 chain)
T4 sequence (P04629 510-796 G595R limits assumed): as the sequence (P04629 510-796 limits assumed) above, with G86R counted along it
Text: as §1, §2

[6] = biological target: T5, ETV6-TRKC-G623R (Homo sapiens, UniProt Q16288, G623R, cells depend on it); assay: Engineered Ba/F3 cell proliferation inhibition (MTS), ETV6-TRKC-G623R; settings: 72 h, read-out: ETV6-TRKC-G623R IC50
T5 construct: fused on or other part: P41212 (Transcription factor ETV6)
T5 sequence (Q16288 whole entry G623R, the tested form may be a part): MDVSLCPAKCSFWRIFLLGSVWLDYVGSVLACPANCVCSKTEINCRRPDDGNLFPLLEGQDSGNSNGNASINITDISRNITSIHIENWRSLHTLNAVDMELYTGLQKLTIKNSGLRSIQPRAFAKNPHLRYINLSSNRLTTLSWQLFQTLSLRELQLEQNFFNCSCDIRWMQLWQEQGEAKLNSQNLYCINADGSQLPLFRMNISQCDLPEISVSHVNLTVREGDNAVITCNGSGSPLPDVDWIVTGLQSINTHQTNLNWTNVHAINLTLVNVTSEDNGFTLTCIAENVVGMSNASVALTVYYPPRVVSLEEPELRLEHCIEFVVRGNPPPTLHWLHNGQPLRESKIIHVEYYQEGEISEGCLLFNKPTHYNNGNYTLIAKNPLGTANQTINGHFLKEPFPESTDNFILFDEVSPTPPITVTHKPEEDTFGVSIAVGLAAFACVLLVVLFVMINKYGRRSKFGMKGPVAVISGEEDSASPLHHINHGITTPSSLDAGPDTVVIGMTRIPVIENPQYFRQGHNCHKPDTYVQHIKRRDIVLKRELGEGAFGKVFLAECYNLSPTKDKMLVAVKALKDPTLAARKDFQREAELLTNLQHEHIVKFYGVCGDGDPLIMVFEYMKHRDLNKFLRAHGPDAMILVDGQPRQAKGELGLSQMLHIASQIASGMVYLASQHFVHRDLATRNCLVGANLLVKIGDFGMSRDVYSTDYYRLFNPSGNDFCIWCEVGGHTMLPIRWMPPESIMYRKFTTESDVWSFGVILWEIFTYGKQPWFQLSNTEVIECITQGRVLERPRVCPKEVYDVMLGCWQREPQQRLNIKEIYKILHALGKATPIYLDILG
Text: as §1
as §2, with “Compounds were then added to the plates with the final compound concentrations of 10000, 3333, 1111, 270, 123, 41.2, 13.7, 4.6 and 1.5 nM. Plates were incubated at 37° C., with 5% CO2 for 72 h. A mixture of 20 μl MTS/100 μl medium were added to each well and the plates were incubated at 37° C., with 5% CO2 for exactly 2 h. The reaction was stopped by adding 25 μl of 10% SDS per well.” left out

| IC50 [2] | IC50 [3] | IC50 [4] | IC50 [5] | GI50 [6] | Structure (SMILES) | IC50 [1] |
| --- | --- | --- | --- | --- | --- | --- |
| 1 nM | 3 nM | 14 nM | – | – | O=C(Nc1cnn2ccc(N3CC[C@H]4C[C@]43c3cc(F)ccc3F)nc12)N1CC[C@H](O)C1 [Example 1, (S)—N-(5-((1R,5S)-1-(2,5-difluorophenyl)-2-azabicyclo[3.1.0]hexan-2-yl)pyrazolo[1,5-a]pyrimidin-3-yl)-3-hydroxypyrrolidine-1-carboxamide] | 1 nM |
| 1 nM | 2 nM | – | 15 nM | 6 nM | CC(C)c1nnc(-c2cnn3ccc(N4CC[C@H]5C[C@]54c4cc(F)ccc4F)nc23)s1 [Example 26, 2-(5-((1R,5S)-1-(2,5-difluorophenyl)-2-azabicyclo [3.1.0]hexan-2-yl)pyrazolo[1,5-a]pyrimidin-3-yl)-5-isopropyl-1,3,4-thiadiazole] | 4 nM |
| 11 nM | 2 nM | – | 21 nM | 20 nM | CC(C)(C)c1nnc(-c2cnn3ccc(N4CC[C@H]5C[C@]54c4cc(F)ccc4F)nc23)s1 [Example 27, 2-(tert-butyl)-5-(5-((1R,5S)-1-(2,5-difluorophenyl)-2-azabicyclo[3.1.0]hexan-2-yl)pyrazolo[1,5-a]pyrimidin-3-yl)-1,3,4-thiadiazole] | 11 nM |
